System: Meloidogyne incognita
Test: Meloidogyne test (MELGIN spray treatment)
Assay type: in vivo
Conditions: 20 ppm; sand with egg-larvae suspension and lettuce seeds; 100 % = no galls found
From the text: Meloidogyne-Test (MELGIN Spritzbehandlung)
Zur Herstellung einer zweckmäßigen Wirkstoffzubereitung vermischt man 1 Gewichtsteil Wirkstoff mit der angegebenen Menge Lösungsmittel und verdünnt das Konzentrat mit Wasser auf die gewünschte Konzentration.
Gefäße werden mit Sand, Wirkstofflösung, Meloidogyne incognita-Ei-Larven-Suspension und Salatsamen gefüllt. Die Salatsamen keimen und die Pflänzchen entwickeln sich. An den Wurzeln entwickeln sich die Gallen.
Nach der gewünschten Zeit wird die nematizide Wirkung an Hand der Gallenbildung in % bestimmt. Dabei bedeutet 100 %, dass keine Gallen gefunden wurden; 0 % bedeutet, dass die Zahl der Gallen an den behandelten Pflanzen der der unbehandelten Kontrolle entspricht.
Bei diesem Test zeigen z. B. die folgenden Verbindungen der Herstellungsbeispiele eine Wirkung von ≥ 80 % bei einer Aufwandmenge von 20 ppm: Beispiel Nr. I-1, I-2

Compound	nematizide Wirkung an Hand der Gallenbildung
CN(Cc1ccccn1)S(=O)(=O)c1cccc(F)c1C#N [I-2]	≥ 80%
CN(Cc1ccccn1)S(=O)(=O)c1ccccc1C#N [I-1, 2-Cyano-N-methyl-N-(pyridin-2-ylmethyl)benzolsulfonamid]	≥ 80%
